Test results as given in US20110245340A1, “Screening Method for Identifying Patients at Risk of Adverse Hepatologic Events” (priority 2009, published 2011).

What was measured:
[1] = Hepatic events in combined dataset of type 2 diabetes mellitus patients using the risk identification tool (exclusion by ApoA1 > ULN or ALT > 2X ULN); type: in vivo, human; conditions: for Percent of Hepatic Events: of 14 events
Text: As noted in Example 2, hepatic events in the sample populations were distributed 71% (17/24) for AGI-1067 treated patients and 29% (7/24) for patients receiving placebo resulting in an AGI-1067 to placebo ratio of 2.4.
There were 14 patients in the combined dataset who had hepatic events using the ALT >5× ULN plus TBL <2× ULN or ALT >3× ULN plus TBL >2× ULN criteria. As noted in Example 2, at randomization the ratio of AGI-1067 to placebo patients was 1.3, the same value as the randomization ratio for AGI-1067 compared to placebo.
When patients with elevated ApoA1 levels or ALT levels of greater than 2.0 times ULN were excluded, 10 hepatic events were eliminated. Of these, 90% were in the AGI-1067 treatment arm. Of the remaining 14 hepatic events, 8 were in AGI-1067 treated patients while 6 were in placebo treated patients. These hepatic events were distributed 57% (8/14) for AGI-1067 patients and 43% (6/14) for patients receiving placebo.
Table 4 summarizes the impact of the exclusionary criteria (primarily ApoA1 elevation) on the number, frequency distribution and ratio of hepatic events for the AGI-1067 and placebo groups in the 3270 type 2 diabetes mellitus patients contained in the datasets.
ALT >2× ULN could also be used as a secondary indicator for exclusion of patients.

[2] = Hepatic events / ALT elevations in combined dataset of diabetes mellitus patients, before use of the risk identification tool; type: in vivo, human; conditions: for Number of Patients ALT 3X to ≦ 5X ULN With TBL ≦ 2X ULN: diabetes patients; for Percent of Hepatic Events: of 24 events
Protocol: Analyses were conducted to identify potential risk factors for drug-induced liver toxicity in clinical studies of the monosuccinic acid ester of probucol (AGI-1067). AGI-1067 represents a new class of therapies targeting certain chronic diseases such as type II diabetes mellitus and atherosclerosis. AGI-1067 functions both as a direct antioxidant and an inducer of endogenous, antioxidant processes such as hemeoxygenase-1 and thioredoxin.
There were 36 patients who had peak elevations of ATL between 3× and ≦5× ULN in the combined dataset of diabetes mellitus patients. […] ALT levels therefore appear to have limited value in assessing potential for hepatotoxicity.
There were 24 diabetes patients in the combined dataset who had hepatic events as using a criteria of either ALT >5× ULN plus TBL <2× ULN or ALT >3× ULN plus TBL >2× ULN criteria. At randomization, 57% of the patients were in the AGI-1067 arm and 43% were in the placebo arm resulting in an AGI-1067 to placebo ratio of 1.3. Of the 24 hepatic events, 17 occurred in AGI-1067 treated patients and 7 occurred in placebo treated patients. […]

[3] = Large clinical study (more than 6000 pts, 2 year average exposure) in patients with pre-existing coronary artery disease; type: in vivo
[4] = in vivo; cited from earlier work
[5] = using the risk identification tool, 75 mg
[6] = using the risk identification tool, 150 mg
[7] = using the risk identification tool, 300 mg
[8] = using the risk identification tool, AGI-1067 all doses
[9] = before use of the risk identification tool, 75 mg
[10] = before use of the risk identification tool, 150 mg
[11] = before use of the risk identification tool, 300 mg
[12] = before use of the risk identification tool, AGI-1067 all doses

SMILES: CC(C)(Sc1cc(C(C)(C)C)c(O)c(C(C)(C)C)c1)Sc1cc(C(C)(C)C)c(OC(=O)CCC(=O)O)c(C(C)(C)C)c1 [AGI-1067, monosuccinic acid ester of probucol]
- Incidence of hepatic events after application of the exclusionary criteria ([1]; 8/1851 patients): 0.4%
- Decrease (↓) of total number of hepatic events by using the risk identification tool ([1]; AGI-1067 all doses, versus before use of the tool): 53%
- Excluded hepatic events relative to placebo patients using Baseline ApoA1 as predictive biomarker ([1]; Baseline ApoA1): seven times more excluded hepatic events
- Number of Hepatic Events Excluded ([1]; Totals of all biomarkers): 9
- Number of Hepatic Events Excluded ([1]; biomarker Apo A1 > 165 mg/dl): 7
- Number of Hepatic Events Excluded ([1]; biomarker Baseline ALT > 2X ULN): 1
- Number of Hepatic Events Excluded ([1]; biomarker Month 1 ALT > 2X ULN): 1
- Share of the 10 eliminated hepatic events that were in the AGI-1067 treatment arm ([1]; exclusion of elevated ApoA1 or ALT > 2.0 times ULN): 90%
- Number of hepatic events versus placebo arm after excluding patients with ApoA1 above ULN (165 mg/dl) before drug ([1]; human, in vivo): achieved parity
- Ratio 1067/Placebo Hepatic Events ([1]; using the risk identification tool): 1.3
- Number of Hepatic Events ALT > 3X ULN Plus TBL > 2X ULN [1, 5]: 0
- Number of Hepatic Events ALT > 5X ULN With TBL ≦ 2X ULN [1, 5]: 2
- Number of Hepatic Events Total [1, 5]: 2
- Percent of Hepatic Events [1, 5]: 14%
- Number of Hepatic Events ALT > 3X ULN Plus TBL > 2X ULN [1, 6]: 0
- Number of Hepatic Events ALT > 5X ULN With TBL ≦ 2X ULN [1, 6]: 1
- Number of Hepatic Events Total [1, 6]: 1
- Percent of Hepatic Events [1, 6]: 7%
- Number of Hepatic Events ALT > 3X ULN Plus TBL > 2X ULN [1, 7]: 2
- Number of Hepatic Events ALT > 5X ULN With TBL ≦ 2X ULN [1, 7]: 3
- Number of Hepatic Events Total [1, 7]: 5
- Percent of Hepatic Events [1, 7]: 36%
- Number of Hepatic Events ALT > 3X ULN Plus TBL > 2X ULN [1, 8]: 2
- Number of Hepatic Events ALT > 5X ULN With TBL ≦ 2X ULN [1, 8]: 6
- Number of Hepatic Events Total [1, 8]: 8
- Percent of Hepatic Events [1, 8]: 57%
- Number of Patients ALT 3X to ≦ 5X ULN With TBL ≦ 2X ULN ([2]; 75 mg): 3
- Percent of ALT Elevations ([2]; 75 mg, share of 36 patients): 8%
- Number of Patients ALT 3X to ≦ 5X ULN With TBL ≦ 2X ULN ([2]; 150 mg): 4
- Percent of ALT Elevations ([2]; 150 mg, share of 36 patients): 11%
- Number of Patients ALT 3X to ≦ 5X ULN With TBL ≦ 2X ULN ([2]; 300 mg): 10
- Percent of ALT Elevations ([2]; 300 mg, share of 36 patients): 28%
- Number of Patients ALT 3X to ≦ 5X ULN With TBL ≦ 2X ULN ([2]; AGI-1067 all doses): 17
- Percent of ALT Elevations ([2]; AGI-1067 all doses, share of 36 patients with ALT 3X to ≦5X ULN): 47%
- Ratio 1067/Placebo Hepatic Events ([2]; before use of the risk identification tool): 2.4
- Number of Hepatic Events ALT > 3X ULN Plus TBL > 2X ULN [2, 9]: 0
- Number of Hepatic Events ALT > 5X ULN With TBL ≦ 2X ULN [2, 9]: 4
- Number of Hepatic Events Total [2, 9]: 4
- Percent of Hepatic Events [2, 9]: 17%
- Number of Hepatic Events ALT > 3X ULN Plus TBL > 2X ULN [2, 10]: 0
- Number of Hepatic Events ALT > 5X ULN With TBL ≦ 2X ULN [2, 10]: 2
- Number of Hepatic Events Total [2, 10]: 2
- Percent of Hepatic Events [2, 10]: 8%
- Number of Hepatic Events ALT > 3X ULN Plus TBL > 2X ULN [2, 11]: 4
- Number of Hepatic Events ALT > 5X ULN With TBL ≦ 2X ULN [2, 11]: 7
- Number of Hepatic Events Total [2, 11]: 11
- Percent of Hepatic Events [2, 11]: 46%
- Number of Hepatic Events ALT > 3X ULN Plus TBL > 2X ULN [2, 12]: 4
- Number of Hepatic Events ALT > 5X ULN With TBL ≦ 2X ULN [2, 12]: 13
- Number of Hepatic Events Total [2, 12]: 17
- Percent of Hepatic Events [2, 12]: 71%
- Incidence of ALT elevations 3X to ≦5X ULN versus placebo ([2]; diabetes mellitus patients): comparable
- Number of patients demonstrating elevated ALT and bilirubin ([3]; of 3078 patients randomized to AGI-1067, four in the placebo arm): eight
- HbA1c levels ([3]; subset of patients with type 2 diabetes mellitus): lower HbA1c levels
- Hard cardiovascular endpoints (composite of cardiovascular death, non-fatal MI and non-fatal stroke) ([3]; well-treated patients with pre-existing coronary artery disease): reduce hard cardiovascular endpoints

SMILES: NNC(=O)c1ccncc1 [isoniazid]
- Serious hepatotoxicity, share of recipients [4]: about 0.1%
